Where “and” joins values, the source holds several entries; their conditions need not be identical. Equal entries are not always repeated. Where two headings read alike, the source gives them in different places. Bounds are passed on as bounds.

Assay [1] deals with T1, MC1-R.
T1 construct: other: 1 μM compound
Kind of assay: Competitive inhibition assay using [I125]-NDP-α-MSH, MC1-R membranes. It counts as binding, mouse. Conditions: for Inhibition at 1 μM (NDP-α-MSH) MC1-R: 1 μM compound. How it is done: (§1) Competitive inhibition assay using [1125]-NDP-α-MSH. A competitive inhibition binding assay was conducted using membranes prepared from HEK-293 cells transfected to express hMC3-R, hMC4-R or hMC5-R, and from B-16 mouse melanoma cells (containing MC1-R) using 0.2 to 0.4 nM [I^125]-NDP-α-MSH (New England Nuclear) in 50 mM HEPES buffer containing 1 mM MgCl2, 2 mM CaCl2, and 5 mM KCl, at pH 7.2. In certain experiments, HEK-293 cells transfected to express hMC1-R were also employed. The assay tube also contained a chosen concentration of the test compound of this invention, typically a 1 μM concentration, for determining inhibition of the binding of [^1125]-NDP-α-MSH to its receptor. Non-specific binding was measured by inhibition of binding of [I^125]-NDP-α-MSH in the assay with the presence of 1 μM α-MSH.
(§2) The assay mixture was incubated for 90 minutes at room temperature, then filtered and the membranes washed three times with ice cold buffer. The filter was dried and counted in a gamma counter for remaining radioactivity bound to the membranes. 100% specific binding was defined as the difference in radioactivity (cpm) bound to cell membranes in the absence and presence of 1 μM α-MSH. The cpm obtained in presence of test compounds were normalized with respect to 100% specific binding to determine the percent inhibition of [125]-NDP-α-MSH binding. Each assay was conducted in triplicate and the actual mean values are described, with results less than 0% reported as 0%.

The test system of assay [2] is T2, hMC4-R.
T2 construct: expressed in transfected cells; host or cells: HEK-293
Kind of assay: Competitive inhibition assay using [I125]-NDP-α-MSH, hMC4-R membranes. Conditions: for attenuation of binding of α-MSH and AgRP to MC4-R: both ligands (NDP-α-MSH and AgRP), summary. In kind it is binding, human. How it is done:
as §1, §2

For assay [3], the system named is T2, hMC4-R. Kind of assay: cAMP functional assay in HEK-293 cells expressing MC4-R (agonist, neutral antagonist/Schild). Conditions: for intrinsic activity at MC4-R: NDP-α-MSH maximal stimulation = 1.0; for functional status at MC4-R: mostly at 1 μM. In kind it is cell-based, human. Here is the method:
General method for EC50 determination in functional activity assay. Functional evaluation of compounds at melanocortin receptors was performed by measuring the accumulation of intracellular cAMP in HEK-293 cells expressing hMC3-R, hMC4-R or hMC5-R, and in B-16 mouse melanoma cells expressing MC1-R. Cells suspended in Earle's Balanced Salt Solution containing 10 mM HEPES (pH 7.5), 5 mM MgCl2, 1 mM glutamine, 0.1% albumin and 0.6 mM 3-isobutyl-1-methyl-xanthine, a phosphodiesterase inhibitor, were plated in 96 well plates at a density of 0.5×10^5 cells per well. Cells were incubated with the test compounds in the presence or absence of α-MSH for 1 hour at 37° C. cAMP levels in the cell lysates were measured using an EIA kit (Amersham). Data analysis and EC50 values were determined using nonlinear regression analysis with Prism Graph-Pad software.
Functional status. The agonist/antagonist status with respect to MC1-R, MC-3R, MC4-R and MC5-R of certain compounds of the invention was determined.
Assay for agonist. Evaluation of the molecules to elicit a functional response in HEK-293 cells expressing MC4-R was accomplished by measuring the accumulation of intracellular cAMP following treatment. Confluent HEK-293 cells expressing MC4-R were detached by enzyme free cell suspension buffer. Cells were suspended in Earle's Balanced Salt Solution containing 10 mM HEPES (pH 7.5), 1 mM MgCl2, 1 mM glutamine, 0.5% albumin and 0.3 mM 3-isobutyl-1-methyl-xanthine (IBMX), a phosphodiesterase inhibitor. The cells were plated in 96 well plates at a density of 0.5×10^5 cells per well and pre-incubated for 30 minutes. The cells were then challenged with the test compounds dissolved in DMSO at a concentration range of 0.05-5000 nM in a total assay volume of 200 μL for 1 hour at 37° C. The concentration of DMSO was always held at 1% in the assay mixture. NDP-α-MSH was used as the reference agonist. At the end of the incubation period the cells were disrupted by the addition of 50 μL of lysis buffer from a cAMP EIA kit (Amersham). Complete rupture of the cells was obtained by pipetting the cells multiple times. cAMP levels in the cell lysates were measured after appropriate dilution using the EIA kit (Amersham) method. Data analysis and EC50 values were determined by using nonlinear regression analysis with Prism Graph-Pad software. […] FIG. 1 illustrates typical results, showing the stimulation of cAMP using the compound of Example 11 in HEK-293/MC4-R cells with comparison to NDP-α-MSH.
Assay for Neutral Antagonist. Compounds with a high affinity for binding to MC4-R membranes but with less potency in terms of cAMP accumulation (EC50>1000 nM) and low response ratio (<0.1) were analyzed for their ability to antagonize the stimulatory effect of the agonist NDP-α-MSH. These studies were carried out in HEK-293 cells expressing MC4-R. Cells were incubated with the compounds in the presence of the agonist NDP-α-MSH and the extent of antagonism was measured by the decrease in intracellular cAMP concentrations. Screening the compounds for antagonist activity was performed at a single concentration of NDP-α-MSH (1.0 nM) over a compound concentration range of 0.5-5000 nM.
Experimental details were similar to the analysis for agonistic activity described above. Briefly, cells were pre-incubated for 30 minutes with the test compounds at concentrations between 0.5 nM and 5000 nM. The cells were then stimulated with NDP-α-MSH at a concentration of 1 nM for 1 hour. For Schild's analysis, the interactions were studied using at least 3 concentrations of the compounds, separated by a log unit, over a full range of the agonist (0.005-5000 nM). cAMP levels were measured in the cell lysates after appropriate dilution. Nonlinear regression analysis with Prism Graph-Pad software was used for Schild analysis and to obtain EC50 values. pA2 values were derived from the Schild plot of the data.

Assay [4] concerns T2, hMC4-R. It counts as binding, human. Conditions: for Inhibition at 1 μM (AgRP) MC4-R: 1 μM compound. Here is the method: Competitive binding assay using [I^125]-AgRP (83-132). Competitive binding studies using [I^125]-AgRP (83-132) were carried out on membranes isolated from cells expressing hMC4-R. The assay was performed in 96 well GF/B Millipore multiscreen filtration plates (MAFB NOB10) pre-coated with 0.5% bovine serum albumin (Fraction V). The assay mixture contained 25 mM HEPES buffer (pH 7.5) with 100 mM NaCl, 2 mM CaCl2, 2 mM MgCl2, 0.3 mM 1,10-phenanthroline, 0.5% bovine serum albumin, cell membranes, radioligand [I^125]-AgRP (83-132) (NEN), and increasing concentrations of compounds in a total volume of 200 μL. Binding was measured at radioligand concentrations of 0.2 nM. After incubating for 1 hour at 37° C., the reaction mixture was filtered and washed with an assay buffer containing 500 mM NaCl. The dried discs were punched out from the plate and counted on a gamma counter. Care was taken to limit the specific binding of the ligand to an amount not exceeding 10% of the counts added to the reaction mixture. Data were analyzed using the Prism Graph-Pad curve fitting software.

The target in assay [5] is T3, hMC3-R.
T3 construct: expressed in transfected cells; host or cells: HEK-293
Kind of assay: Competitive inhibition assay using [I125]-NDP-α-MSH, hMC3-R membranes. In kind it is binding, human. Conditions: read-out: Ki (nM) (NDP-α-MSH) MC3-R. Here is the method: as §1, §2

The mark [6] stands for this setting: cAMP assay, read-out: EC50 (nM) at MC4-R.
Where [7] appears, read: MC4-R membranes, Table 1, read-out: Ki (nM) I125-AgRP.

Consider `NCCCC[C@H]1C(=O)N(CCc2ccc3ccccc3c2)CCN1C(=O)[C@@H](Cc1ccc(Cl)cc1Cl)NC(=O)[C@@H]1CC[C@H](c2ccccc2)N1` [Example 19, (2S,5R)-5-Phenyl-pyrrolidine-2-carboxylic acid [(R)-2-[(S)-2-(4-amino-butyl)-4-(2-naphthalen-2-yl-ethyl)-3-oxo-piperazin-1-yl]-1-(2,4-dichloro-benzyl)-2-oxo-ethyl]-amide], for which the Ki in assay [1] worked out at 1370 nM; in assay [4] (setting [7]) it was 63 nM; in assay [4] (read-out: Ki (nM) (AgRP) MC4-R) it was 63 nM; in assay [5], 855 nM. For the same compound, in assay [1], the “Inhibition at 1 μM (NDP-α-MSH) MC1-R” value is reported as 0%. Also, the “attenuation of binding of α-MSH and AgRP to MC4-R” value in assay [2] is “attenuate the binding of both α-MSH and AgRP to MC4-R”. In assay [3] (MC4-R, Table 1), the “functional status (pAg, Ag, Antag, Inactive)” value is given as “pAg (“pAg” means partial agonist)”. Further, the concentration for a half-maximal effect (EC50) in assay [3] (MC4-R, Table 1, read-out: EC50) was 959 nM; in assay [3] (setting [6]) it was 959 nM. The “intrinsic activity at MC4-R” value in assay [3] was 0.19 and 0.2. Also, the “Inhibition at 1 μM (AgRP) MC4-R” value in assay [4] stood at 95%.

Turning to `N=C(N)NCCC[C@H]1C(=O)N2C(CC[C@@H]2COc2ccc3ccccc3c2)N1C(=O)[C@@H](Cc1ccc(Cl)cc1Cl)NC(=O)[C@@H]1CC[C@H](c2ccccc2)N1` (stereo partly drawn) [Example 20, (2S,5R)-5-Phenyl-pyrrolidine-2-carboxylic acid {(R)-1-(2,4-dichloro-benzyl)-2-[(2S,5R)-2-(3-guanidino-propyl)-5-(naphthalen-2-yloxymethyl)-3-oxo-hexahydro-pyrrolo[1,2-a]imidazol-1-yl]-2-oxo-ethyl}-amide], the Ki is 1040 nM in assay [1], 23 nM in assay [4] (setting [7]), 23 nM in assay [4] (read-out: Ki (nM) (AgRP) MC4-R) and 312 nM in assay [5]. The “Inhibition at 1 μM (NDP-α-MSH) MC1-R” value in assay [1] is 16%. In assay [3] (MC4-R, Table 1), the “functional status (pAg, Ag, Antag, Inactive)” value is on record as “Inactive”. The EC50 in assay [3] (MC4-R, Table 1, read-out: EC50) is over 1000 nM. Besides, the “functional status at MC4-R” value in assay [3] (cAMP assay) was “inactive”. Further, the “Inhibition at 1 μM (AgRP) MC4-R” value in assay [4] is on record as 99%.

With `Cc1cc(Cl)ccc1C[C@@H](N)C(=O)N1C[C@@H](C)N(CCc2ccc3ccccc3c2)C[C@@H]1CCCNC(=N)N` [Example 27, N-{3-[1-[2(R)-Amino-3-(2-methyl, 4-chloro-phenyl)-propionyl]-5(R)-methyl-4-(2-naphthaen-2-yl-ethy)-piperazin-2(S)-yl]-propyl}-guanidine], the Ki in assay [2] (MC4-R membranes, Table 1, read-out: Ki (nM) I125-NPD-α-MSH) came to 29 nM. In addition, the “functional status (pAg, Ag, Antag, Inactive)” value in assay [3] (MC4-R, Table 1) is on record as “pAg (“pAg” means partial agonist)”. In addition, the EC50 in assay [3] (MC4-R, Table 1, read-out: EC50) amounted to 214 nM; in assay [3] (setting [6]), 214 nM. The “intrinsic activity at MC4-R” value in assay [3] is given as 0.3. Further, in assay [3] (cAMP assay), the “functional status at MC4-R” value is “partial agonist (intrinsic activity between 0.1 (10%) and 0.7 (70%) is classified as a partial agonist)”.

Turning to “NH2—(CH2)6—C(═O)-Ser(Bzl)-D-Phe(4-Cl)-Arg-Trp-Ala-NH2 [Example 16]”, the inhibitory constant (Ki) in assay [1] stood at 142 nM; in assay [5] it was 35 nM. Moreover, the “Inhibition at 1 μM (NDP-α-MSH) MC1-R” value in assay [1] came out at 60%. Further, the half-maximal effective concentration (EC50) in assay [3] (MC4-R, Table 1 in μM, read-out: EC50) was over 1000 nM; in assay [3] (cAMP assay, printed in μm, read-out: EC50 at MC4-R), over 1000 nM. Also, in assay [3] (cAMP assay), the “functional status at MC4-R” value was “functionally inactive”.

For the compound `C[C@@H]1CN(C(=O)[C@H](N)Cc2ccc(Cl)cc2)[C@@H](CCCNC(=N)N)CN1CCc1ccc2ccccc2c1` [Example 29, N-{3-[1-[2(R)-Amino-3-(4-CHLORO-phenyl)-propionyl]-5(R)-methyl-4-(2-naphthalen-2-yl-ethyl)-piperazin-2(S)-yl]-propyl}-guanidine], in assay [2], the “attenuation of binding of α-MSH and AgRP to MC4-R” value is “attenuate the binding of both α-MSH and AgRP to MC4-R”. In addition, in assay [3] (MC4-R, Table 1), the “functional status (pAg, Ag, Antag, Inactive)” value is on record as “Ag”. For the same compound, the concentration for a half-maximal effect (EC50) in assay [3] (MC4-R, Table 1, read-out: EC50) came out at 252 nM; in assay [3] (setting [6]), 252 nM. In addition, the “intrinsic activity at MC4-R” value in assay [3] is 0.8. Moreover, the “functional status at MC4-R” value in assay [3] (cAMP assay) was “agonist (intrinsic activity of 0.7 (70%) or higher is classified as an agonist)”. In addition, in assay [4], the “Inhibition at 1 μM (AgRP) MC4-R” value is given as 97%. Moreover, in assay [4] (read-out: Ki (nM) (AgRP) MC4-R), the inhibition constant (Ki) was found to be 15 nM.

`NCCCC[C@H]1C(=O)N(CCc2ccc3ccccc3c2)CCN1C(=O)[C@@H](Cc1ccc(Cl)cc1Cl)NC(=O)c1ccc(Oc2ccccc2)cc1` [Example 22, N—[(R)-2-[(S)-2-(4-Amino-butyl)-4-(2-naphthalen-2-yl-ethyl)-3-oxo-piperazin-1-yl]-1-(2,4-dichloro-benzyl)-2-oxo-ethyl]-4-phenoxy-benzamide]: the “functional status (pAg, Ag, Antag, Inactive)” value in assay [3] (MC4-R, Table 1) was “Inactive”. The EC50 in assay [3] (MC4-R, Table 1, read-out: EC50) was over 1000 nM. The “functional status at MC4-R” value in assay [3] (cAMP assay) was “inactive”. In addition, the “Inhibition at 1 μM (AgRP) MC4-R” value in assay [4] was 100%. The Ki in assay [4] (setting [7]) and in assay [4] (read-out: Ki (nM) (AgRP) MC4-R) was 0.9 nM in each case.
